Experimental data: PubChem BioAssay (NCI)
Several values for one entry are separate records, joined by “and”; a condition that tells them apart may be missing. Equal entries are not always repeated.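 Assay format: 96-well plates, 48-hour exposure. Here, GI50 denotes the concentration required for 50% inhibition of growth. Definition used: TGI = concentration required for complete inhibition of growth.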

How the values were obtained:
Assay in all cases: DTP human tumour cell line panel, 48 h
[1] = tested on: HOP-92 NSCLC
[2] = tested on: CCRF-CEM leukemia
[3] = tested on: NCI-H460 lung
[4] = tested on: OVCAR-5 ovarian
[5] = tested on: SNB-19 CNS
[6] = tested on: SK-MEL-2 melanoma
[7] = tested on: HCT-116 colon
[8] = tested on: DU-145 prostate
[9] = tested on: MCF7 breast
[10] = tested on: HS 578T breast

O=[N+]([O-])c1cccc(C2=NOC3CCCC23)c1 (centres undefined)
TGI [1]: > 100 µM
TGI [2]: > 100 µM
TGI [3]: > 100 µM
TGI [4]: > 100 µM
TGI [5]: > 100 µM
TGI [6]: > 100 µM
TGI [7]: > 100 µM

CCOC(=O)c1c(/C=N\Nc2ccccc2)nc2ccccc2c1-c1ccccc1
TGI [1]: > 100 µM
TGI [2]: 88 µM
TGI [3]: > 100 µM
TGI [4]: > 100 µM
TGI [5]: > 100 µM
TGI [6]: > 100 µM
TGI [7]: > 100 µM

Cc1cc(C2(c3cc(C)c(O)c4ncccc34)OC(=O)c3ccccc32)c2cccnc2c1O
TGI [2]: > 100 µM
TGI [3]: 0.203 µM
GI50 [8]: 0.242 µM
TGI [8]: > 100 µM
TGI [4]: > 100 µM
TGI [9]: > 100 µM
GI50 [5]: 0.0365 µM
GI50 [6]: 0.117 µM
TGI [6]: > 100 µM
TGI [7]: > 100 µM

Cc1c2cc[n+](C)cc2c(C)c2c1[nH]c1ccc(Oc3ccccc3)cc12
TGI [1]: 7.37 µM and 6.77 µM
TGI [2]: 18.6 µM and 22.9 µM
GI50 [3]: 1.64 µM and 1.06 µM
TGI [3]: 14 µM and 11.4 µM
TGI [4]: > 42 µM and 29.9 µM
GI50 [5]: 0.23 µM
TGI [5]: 0.887 µM and 4.09 µM
TGI [7]: > 100 µM

COc1ccc(S(=O)(=O)NCCCNc2nccc(-c3c(-c4ccc(F)cc4)nc4sccn34)n2)cc1
GI50 [2]: 4.42 µM
TGI [2]: > 100 µM
GI50 [3]: 4.33 µM
TGI [3]: > 100 µM
GI50 [8]: 7.14 µM
TGI [8]: > 100 µM
GI50 [4]: 32.7 µM
TGI [4]: > 100 µM
GI50 [10]: 3.58 µM
TGI [10]: > 100 µM
GI50 [9]: 2740 nM
TGI [9]: > 100 µM
GI50 [5]: 40.2 µM
TGI [5]: > 100 µM
GI50 [6]: 12.4 µM
TGI [6]: 50.3 µM
GI50 [7]: 4.85 µM
TGI [7]: > 100 µM

NC(=O)NC(=O)C1CCC(=O)N1S(=O)(=O)c1ccc(Cl)cc1 (centres undefined)
TGI [1]: > 100 µM
TGI [2]: > 100 µM
TGI [3]: > 100 µM
TGI [5]: > 100 µM
TGI [6]: > 100 µM
TGI [7]: > 100 µM

CCCNc1ncnc2c1cnn2C
TGI [1]: > 100 µM
TGI [2]: > 100 µM
TGI [3]: > 100 µM
TGI [4]: > 100 µM
TGI [5]: > 100 µM
TGI [6]: > 100 µM
TGI [7]: > 100 µM

CCOC(=O)NC/C=C/CO
TGI [2]: > 100 µM
TGI [3]: > 100 µM
TGI [5]: > 100 µM
TGI [6]: > 100 µM
TGI [7]: > 100 µM

COc1ccc(-c2ccc(/C=N/n3c(COc4ccc(Cl)c(C)c4)nn(CN4CCOCC4)c3=S)o2)c([N+](=O)[O-])c1
GI50 [2]: 19.3 µM
TGI [2]: 56.2 µM
GI50 [3]: 18.5 µM
TGI [3]: 55.8 µM
GI50 [8]: 38 µM
TGI [8]: > 100 µM
GI50 [4]: 33.2 µM
TGI [4]: > 100 µM
GI50 [10]: 37.8 µM
TGI [10]: > 100 µM
GI50 [9]: > 100000 nM
TGI [9]: > 100 µM
GI50 [5]: 41.2 µM
TGI [5]: > 100 µM
GI50 [7]: 17.6 µM
TGI [7]: 34.3 µM

CCOC(=O)/C(=C/c1ccc[nH]1)P(=O)(OCC)OCC
TGI [1]: > 100 µM
TGI [2]: > 100 µM
TGI [3]: > 100 µM
TGI [4]: > 100 µM
TGI [5]: > 100 µM
TGI [6]: > 100 µM
TGI [7]: > 100 µM

CN(C)c1ccc(/C=C2\Cc3ccccc3C2=O)cc1Br
TGI [2]: > 100 µM
TGI [3]: > 100 µM
TGI [4]: > 100 µM
TGI [5]: > 100 µM
TGI [6]: > 100 µM

Cn1ncc2c(c1=O)Nc1ccccc1S2(=O)=O
TGI [1]: > 100 µM
TGI [2]: > 100 µM
TGI [3]: > 100 µM
TGI [4]: > 100 µM
TGI [5]: > 100 µM
TGI [6]: > 100 µM
TGI [7]: > 100 µM

Cc1nc(-c2cccnc2)sc1C(=O)/C=C/c1ccc(Cl)cc1Cl
TGI [1]: > 100 µM
TGI [2]: > 100 µM
TGI [3]: > 100 µM
TGI [4]: > 100 µM
TGI [6]: > 100 µM

NC1CC(n2ccc(=O)[nH]c2=O)OC1C(O)CO (centres undefined)
TGI [1]: > 100 µM
TGI [2]: > 100 µM
TGI [3]: > 100 µM
TGI [4]: > 100 µM
TGI [5]: > 100 µM
TGI [6]: > 100 µM
TGI [7]: > 100 µM

COC(=O)CCSC(=O)Nc1ccccc1Cl
TGI [2]: > 100 µM
TGI [3]: > 100 µM
TGI [4]: > 100 µM
TGI [5]: > 100 µM
TGI [6]: > 100 µM
TGI [7]: > 100 µM

Clc1ccc(N=CNc2ccc(-c3nc4ccccc4[nH]3)cc2)cc1
GI50 [1]: 59.1 µM
TGI [1]: > 100 µM
GI50 [3]: 17.7 µM
TGI [3]: > 100 µM
GI50 [8]: 59.2 µM
TGI [8]: > 100 µM
GI50 [4]: > 100 µM
TGI [4]: > 100 µM
GI50 [10]: 91.9 µM
TGI [10]: > 100 µM
GI50 [5]: > 100 µM
TGI [5]: > 100 µM
GI50 [6]: 76.6 µM
TGI [6]: > 100 µM
GI50 [7]: > 100 µM
TGI [7]: > 100 µM

CCCCCCCCCCCCCCCC(=O)NCC(OCC)OCC
TGI [1]: > 100 µM
TGI [2]: > 100 µM
TGI [3]: > 100 µM
TGI [4]: > 100 µM
TGI [5]: > 100 µM
TGI [6]: > 100 µM
TGI [7]: > 100 µM
